# Patent US20250302863A1, “USE OF THBS1 INHIBITOR FOR OVERCOMING DRUG RESISTANCE IN CANCER” (KOREA ADVANCED INSTITUTE OF SCIENCE AND TECHNOLOGY, priority 2022, published 2025)
# Legend:
# Format in all cases: cell-based, Human
# [1] = system: THBS1 mRNA; assay: THBS1 knockdown by shRNA, mRNA level by qRT-PCR; settings: lentiviral shRNA, FIG. 8A
# Protocol: HEK 293T cells were used to transfect shRNA targeting THBS1 and an overexpression vector. In addition to shRNA (shTHBS1; […]; SEQ ID NO: 1) and an overexpression vector (pDNA (VB220725-1808zjh); […]. Infected cells were selected using 1 μg/ml of puromycin for at least one week.
# (§1) Total RNA was extracted from cells using a total RNA extraction kit from Intron Biotechnology. Genomic DNA was removed by treatment with RNase-free DNase I. Complementary DNA (cDNA) was synthesized using a DiaStar RT kit of Solgent. In addition, RT-PCR was performed using Veriti 96-well Thermal Cycler of Applied Biosystems, and real-time polymerase chain reaction (qRT-PCR) was performed using a QuantStudio 5 real-time PCR system, an SYBR master mix (Genet Bio), and primers.
# At this time, when NCI-H1792 and NCI-H1793 cell lines, lung cancer cell lines with drug resistance to APR-246, were treated with THBS1-targeting shRNA (SEQ ID NO: 1; […]) as a THBS1 inhibitor, the THBS1 mRNA expression level was reduced (FIG. 8A). In addition, when THBS1 was overexpressed in NCI-H2009 and HCC827, lung cancer cell lines with high drug responsiveness to APR-246, it was confirmed that the THBS1 mRNA expression level was increased (FIG. 8B).
# [2] = system: NCI-H1792; assay: Cell viability by APR-246 treatment concentration (IncuCyte, crystal violet); settings: NCI-H1792 p53-mutant lung cancer cells, 4 to 5 days, FIG. 7A
# Protocol: (§2) Human lung cancer cell lines NCI-H1793, NCI-H2009, and HCC827 were purchased from the Korea Cell Line Bank (KCLB), and NCI-H1792 was purchased from the American Type Culture Collection (ATCC). NCI-H1793 and HCC827 were cultured in a RPMI 1640 medium supplemented with 10% fetal bovine serum (FBS) and antibiotics (100 U/ml penicillin, 100 μg/ml of streptomycin, and 0.25 μg/ml of Fungizone). NCI-H1792 and NCI-H2009 were cultured with the same supplements in a DMEM medium. All the cell lines were cultured at 37° C. in an incubator containing 5% carbon dioxide.
# (§3) Dimethyl sulfoxide (DMSO) was purchased from Sigma-Aldrich and was used as a drug control. APR-246 and TGFβ1 protein were purchased from MedChemExpress (MCE). APR-246 was used by diluting 25 mg to a final concentration of 10 mM, and the cells were treated for 4 to 5 days when checking the cell viability and for 24 hours when performing a Western blot experiment. In addition, TGFβ1 at a concentration of 10 μg/ml was a TGF-beta pathway activator, and drug-sensitive cell lines were seeded and treated with 5 ng/ml of TGFβ1 24 hours later, and the cells were harvested 24 hours later.
# (§4) Cells were seeded in a 96-well plate at 3 to 5×10^3 cells per well. A drug was then treated within 24 hours after seeding. After drug treatment, cell growth was recorded every 3 hours using IncuCyte ZOOM for 4 to 5 days. Cell viability was analyzed using IncuCyte ZOOM 2016A software. After 4 to 5 days, the cells were stained with 1% crystal violet for 30 minutes at room temperature and washed with distilled water to confirm the amount of viable cells.
# (§5) The present inventors confirmed the cell viability according to the APR-246 drug treatment concentration for lung cancer cell lines NCI-H1793, NCI-H1792, HCC827, and NCI-H2009, which were known to have p53 mutations. At this time, APR-246 drug-sensitive cell lines and resistant cell lines were distinguished based on z-score normalized IC50 values.
# [3] = system: NCI-H1793; assay: as above; settings: NCI-H1793 p53-mutant lung cancer cells, 4 to 5 days, FIG. 7A
# Protocol: as §2, §3, §4, §5
# [4] = system: NCI-H2009; assay: as above; settings: NCI-H2009 p53-mutant lung cancer cells, 4 to 5 days, FIG. 7B
# Protocol: as §2, §3, §4, §5
# [5] = system: HCC827; assay: as above; settings: HCC827 p53-mutant lung cancer cells, 4 to 5 days, FIG. 7B
# Protocol: as §2, §3, §4, §5
# [6] = system: THBS1; assay: THBS1 expression after TGF-beta pathway activation in sensitive cell lines; settings: two sensitive cell lines, 5 ng/ml TGFβ1 24 hours after seeding, harvested 24 hours later, FIGS. 10D and 10E
# Protocol: as §3, §1
# [7] = system: TGFβ1 mRNA; assay: TGFβ1 mRNA expression after TGF-beta pathway activation in sensitive cell lines; settings: two sensitive cell lines, 5 ng/ml TGFβ1 24 hours after seeding, harvested 24 hours later, FIGS. 10D and 10E
# Protocol: as §3, §1
compound,measurement,setting,value
"THBS1-targeting shRNA: short hairpin RNA targeting THBS1, GTAGGTTATGATGAGTTTAAT (SEQ ID NO: 1), delivered by lentivirus (guide GUAGGUUAUGAUGAGUUUAAU)",THBS1 mRNA expression level,[1]; NCI-H1792 cells,reduced
same,THBS1 mRNA expression level,[1]; NCI-H1793 cells,reduced
COCC1(CO)C(=O)C2CCN1CC2 (centres unmarked) [APR-246],drug response (cell viability),[2],hardly responded
same,drug response (cell viability),[3],hardly responded
same,drug response (cell viability),[4],clear response
same,drug response (cell viability),[5],clear response
"drug that activated the TGF-beta signaling pathway: TGFβ1 protein from MedChemExpress, used as TGF-beta pathway activator at 5 ng/ml",expression level of THBS1,[6],increased
same,mRNA expression level of TGFβ1,[7],increased
